Assay results from patent publication US11447466B2, “Substituted indole compounds useful as inhibitors of TLR7/8/9” (BRISTOL-MYERS SQUIBB COMPANY, priority 2017, dated 2022).

Assays:
Type in all cases: cell-based
human TLR9 = biological target: T1, human TLR9 (Homo sapiens, UniProt Q9NR96); experiment: TLR9 inhibition reporter assay (HEK-Blue SEAP reporter, ODN2006 stimulation); conditions: HEK-Blue cells overexpressing human TLR9, SEAP reporter, ODN2006 5 nM, 22 hour incubation
T1 construct: host or cells: HEK-Blue cells
T1 sequence (Q9NR96 26-1032): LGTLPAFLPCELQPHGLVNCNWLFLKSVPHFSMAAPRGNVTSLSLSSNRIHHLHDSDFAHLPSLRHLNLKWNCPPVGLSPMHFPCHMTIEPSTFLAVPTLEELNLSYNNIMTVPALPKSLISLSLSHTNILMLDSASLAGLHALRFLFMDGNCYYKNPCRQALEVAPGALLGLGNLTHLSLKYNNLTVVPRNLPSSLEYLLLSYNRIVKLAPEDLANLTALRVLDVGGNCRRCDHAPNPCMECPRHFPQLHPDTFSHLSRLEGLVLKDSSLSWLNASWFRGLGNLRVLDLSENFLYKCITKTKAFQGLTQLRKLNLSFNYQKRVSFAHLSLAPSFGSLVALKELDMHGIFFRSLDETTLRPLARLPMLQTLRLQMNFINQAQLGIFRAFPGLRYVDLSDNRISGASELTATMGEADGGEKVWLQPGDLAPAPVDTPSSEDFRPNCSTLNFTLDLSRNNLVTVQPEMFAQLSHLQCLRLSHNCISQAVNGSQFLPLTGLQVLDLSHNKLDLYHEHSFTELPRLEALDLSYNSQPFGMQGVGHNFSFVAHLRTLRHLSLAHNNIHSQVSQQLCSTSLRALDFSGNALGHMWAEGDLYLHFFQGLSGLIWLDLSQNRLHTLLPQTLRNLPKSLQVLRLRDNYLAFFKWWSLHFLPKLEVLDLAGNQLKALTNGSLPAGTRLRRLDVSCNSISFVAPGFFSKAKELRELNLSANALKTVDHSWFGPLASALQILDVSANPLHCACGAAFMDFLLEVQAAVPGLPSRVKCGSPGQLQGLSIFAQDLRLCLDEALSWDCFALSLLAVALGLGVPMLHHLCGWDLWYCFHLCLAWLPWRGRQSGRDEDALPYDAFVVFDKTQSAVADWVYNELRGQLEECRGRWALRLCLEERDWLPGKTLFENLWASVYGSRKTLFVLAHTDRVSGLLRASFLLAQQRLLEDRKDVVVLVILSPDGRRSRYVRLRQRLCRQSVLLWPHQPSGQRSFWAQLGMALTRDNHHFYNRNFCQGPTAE
Outline: (§1)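 Human TLR7/8/9 HEK-Blue reporter lines; dose range 0.05 nM–50 μM; 30 min RT preincubation; stimulus gardiquimod 7.5 μM / R848 15.9 μM / ODN2006 5 nM respectively; 22 h, 37 °C; SEAP detected colorimetrically.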

human TLR8 = biological target: T2, human TLR8 (Homo sapiens, UniProt Q9NR97); experiment: TLR8 inhibition reporter assay (HEK-Blue SEAP reporter, R848 stimulation); conditions: HEK-Blue cells overexpressing human TLR8, SEAP reporter, R848 15.9 μM, 22 hour incubation
T2 construct: host or cells: HEK-Blue cells
T2 sequence (Q9NR97 27-1041): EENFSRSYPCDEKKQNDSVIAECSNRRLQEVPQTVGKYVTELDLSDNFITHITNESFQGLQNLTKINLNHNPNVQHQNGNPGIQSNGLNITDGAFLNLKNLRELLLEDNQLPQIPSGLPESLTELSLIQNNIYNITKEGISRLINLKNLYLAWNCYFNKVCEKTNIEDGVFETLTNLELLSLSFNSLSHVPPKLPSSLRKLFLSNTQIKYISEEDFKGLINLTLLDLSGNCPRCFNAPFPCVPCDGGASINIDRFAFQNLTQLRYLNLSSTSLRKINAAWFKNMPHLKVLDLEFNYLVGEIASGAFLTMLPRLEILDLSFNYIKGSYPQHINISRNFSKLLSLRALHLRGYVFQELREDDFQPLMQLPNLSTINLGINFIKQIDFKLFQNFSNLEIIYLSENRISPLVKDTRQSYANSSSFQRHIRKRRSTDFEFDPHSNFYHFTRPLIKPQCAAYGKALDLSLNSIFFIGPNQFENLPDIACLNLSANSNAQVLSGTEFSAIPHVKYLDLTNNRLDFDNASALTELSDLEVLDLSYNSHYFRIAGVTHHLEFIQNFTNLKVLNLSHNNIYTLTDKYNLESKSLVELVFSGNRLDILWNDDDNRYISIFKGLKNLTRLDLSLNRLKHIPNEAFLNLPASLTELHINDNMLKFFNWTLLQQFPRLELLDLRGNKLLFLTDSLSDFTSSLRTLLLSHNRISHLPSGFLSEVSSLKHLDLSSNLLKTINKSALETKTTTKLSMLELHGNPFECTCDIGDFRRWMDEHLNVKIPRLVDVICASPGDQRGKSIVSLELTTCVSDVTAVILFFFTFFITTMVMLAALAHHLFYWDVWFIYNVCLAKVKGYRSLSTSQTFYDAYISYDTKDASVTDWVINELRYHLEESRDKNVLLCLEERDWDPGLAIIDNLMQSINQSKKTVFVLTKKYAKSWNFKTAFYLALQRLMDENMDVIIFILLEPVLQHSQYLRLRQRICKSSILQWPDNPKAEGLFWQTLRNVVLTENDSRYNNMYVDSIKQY
Outline: as §1

human TLR7 = biological target: T3, human TLR7 (Homo sapiens, UniProt Q9NYK1); experiment: TLR7 inhibition reporter assay (HEK-Blue SEAP reporter, gardiquimod stimulation); conditions: HEK-Blue cells overexpressing human TLR7, SEAP reporter, gardiquimod 7.5 μM, 22 hour incubation
T3 construct: host or cells: HEK-Blue cells
T3 sequence (Q9NYK1 27-1049): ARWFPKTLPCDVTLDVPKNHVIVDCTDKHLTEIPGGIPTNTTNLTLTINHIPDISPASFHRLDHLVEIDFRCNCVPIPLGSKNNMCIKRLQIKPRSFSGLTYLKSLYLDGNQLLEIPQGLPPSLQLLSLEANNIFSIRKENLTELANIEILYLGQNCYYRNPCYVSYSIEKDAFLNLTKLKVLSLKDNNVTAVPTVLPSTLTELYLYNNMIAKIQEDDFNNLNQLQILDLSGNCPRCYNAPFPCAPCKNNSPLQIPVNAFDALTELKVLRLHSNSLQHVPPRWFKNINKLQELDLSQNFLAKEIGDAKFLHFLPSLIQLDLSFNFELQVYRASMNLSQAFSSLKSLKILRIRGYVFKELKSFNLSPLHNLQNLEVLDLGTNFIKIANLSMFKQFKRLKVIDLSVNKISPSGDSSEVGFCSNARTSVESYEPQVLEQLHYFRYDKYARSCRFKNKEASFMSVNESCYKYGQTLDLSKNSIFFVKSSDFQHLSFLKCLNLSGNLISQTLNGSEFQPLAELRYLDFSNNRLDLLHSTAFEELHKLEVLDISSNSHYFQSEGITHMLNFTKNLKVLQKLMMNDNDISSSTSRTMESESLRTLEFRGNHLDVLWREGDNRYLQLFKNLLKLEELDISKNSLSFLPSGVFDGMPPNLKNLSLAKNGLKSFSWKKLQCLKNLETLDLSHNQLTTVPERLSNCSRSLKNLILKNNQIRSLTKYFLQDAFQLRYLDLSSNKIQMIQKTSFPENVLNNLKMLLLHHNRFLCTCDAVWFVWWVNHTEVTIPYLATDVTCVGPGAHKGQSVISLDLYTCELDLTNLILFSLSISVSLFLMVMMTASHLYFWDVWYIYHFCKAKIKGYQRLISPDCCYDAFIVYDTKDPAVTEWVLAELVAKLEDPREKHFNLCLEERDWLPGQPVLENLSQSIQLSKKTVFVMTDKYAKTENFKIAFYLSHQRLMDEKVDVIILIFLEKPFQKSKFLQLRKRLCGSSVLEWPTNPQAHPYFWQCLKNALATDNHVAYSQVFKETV
Outline: as §1

SMILES	IC50 (human TLR9)	IC50 (human TLR8)	IC50 (human TLR7)
Cc1c(-c2[nH]c3ccc(C4CCN(CC(C)(C)O)CC4)cc3c2C(C)C)cc(C#N)c(=O)n1C [Example 321, 5-(5-(1-(2-hydroxy-2-methylpropyl)piperidin-4-yl)-3-isopropyl-1H-indol-2-yl)-1,6-dimethyl-2-oxo-1,2-dihydropyridine-3-carbonitrile]	4370 nM	1.6 nM	36.7 nM
Cc1c(-c2[nH]c3ccc(C4CCN(CC(C)(C)O)CC4)cc3c2C(C)C)cn(C)c(=O)c1C#N [Example 322, 5-(5-(1-(2-hydroxy-2-methylpropyl)piperidin-4-yl)-3-isopropyl-1H-indol-2-yl)-1,4-dimethyl-2-oxo-1,2-dihydropyridine-3-carbonitrile]	4790 nM	1 nM	45.7 nM
COCc1cc(-c2[nH]c3ccc(C4CCN(CC(C)(C)O)CC4)cc3c2C(C)C)cn(C)c1=O [Example 323, 5-(5-(1-(2-hydroxy-2-methylpropyl)piperidin-4-yl)-3-isopropyl-1H-indol-2-yl)-3-(methoxymethyl)-1-methylpyridin-2(1H)-one]	7180 nM	13.9 nM	18.4 nM
Cc1cc(-c2[nH]c3ccc(C4CCN(CC(O)C(C)C)CC4)cc3c2C(C)C)cn(C)c1=O (stereo not drawn) [Example 324, 5-(5-(1-(2-hydroxy-3-methylbutyl)piperidin-4-yl)-3-isopropyl-1H-indol-2-yl)-1,3-dimethylpyridin-2(1H)-one]	11500 nM	2.8 nM	2.5 nM
Cc1c(-c2[nH]c3ccc(C4CCN(CC(C)(C)O)CC4)c(F)c3c2C(C)C)cn(C)c(=O)c1Cl [Example 327, 3-chloro-5-(4-fluoro-5-(1-(2-hydroxy-2-methylpropyl)piperidin-4-yl)-3-isopropyl-1H-indol-2-yl)-1,4-dimethylpyridin-2(1H)-one]	3280 nM	1.6 nM	6 nM
Cc1cc(-c2[nH]c3ccc(C4CCN(CC(C)(C)O)CC4)cc3c2C(C)C)cn(CC(C)C)c1=O [Example 328, 5-(5-(1-(2-hydroxy-2-methylpropyl)piperidin-4-yl)-3-isopropyl-1H-indol-2-yl)-1-isobutyl-3-methylpyridin-2(1H)-one]	5970 nM	54.7 nM	49.1 nM

The next compounds have a lower IC50 (human TLR9) than those just listed; values first:

IC50 (human TLR9)	IC50 (human TLR8)	IC50 (human TLR7)	SMILES
3000 nM	4.3 nM	8.7 nM	Cc1cc(-c2[nH]c3ccc(C4CCN(CC(O)C(C)(C)C)CC4)cc3c2C(C)C)cn(C)c1=O (stereo not drawn) [Example 325, 5-(5-(1-(2-hydroxy-3,3-dimethylbutyl)piperidin-4-yl)-3-isopropyl-1H-indol-2-yl)-1,3-dimethylpyridin-2(1H)-one]
1660 nM	0.6 nM	6.1 nM	CC(C)c1c(-c2cc(-c3cncnc3)c(=O)n(C)c2)[nH]c2ccc(C3CCN(CC(C)(C)O)CC3)cc12 [Example 326, 5-(5-(1-(2-hydroxy-2-methylpropyl)piperidin-4-yl)-3-isopropyl-1H-indol-2-yl)-1-methyl-3-(pyrimidin-5-yl)pyridin-2(1H)-one]
705 nM	432 nM	7.7 nM	CCCN1CCC(c2ccc3[nH]c(-c4cc(-c5ccc(N6CCOCC6)nc5)c(=O)n(C)c4)c(C(C)C)c3c2)CC1 [Example 330, 5-(3-isopropyl-5-(1-propylpiperidin-4-yl)-1H-indol-2-yl)-1-methyl-6′-morpholino-[3,3′-bipyridin]-2(1H)-one]
2710 nM	9.6 nM	6.3 nM	CCCN1CCC(c2ccc3[nH]c(-c4cc(-c5cnc(OC)nc5)c(=O)n(C)c4)c(C(C)C)c3c2)CC1 [Example 331, 5-(3-isopropyl-5-(1-propylpiperidin-4-yl)-1H-indol-2-yl)-3-(2-methoxypyrimidin-5-yl)-1-methylpyridin-2(1H)-one]
789 nM	1.1 nM	4.9 nM	CCCN1CCC(c2ccc3[nH]c(-c4cc(-c5cncc(C)c5)c(=O)n(C)c4)c(C(C)C)c3c2)CC1 [Example 332, 5-(3-isopropyl-5-(1-propylpiperidin-4-yl)-1H-indol-2-yl)-1,5′-dimethyl-[3,3′-bipyridin]-2(1H)-one]
3010 nM	11.1 nM	92.2 nM	CCCN1CCC(c2ccc3[nH]c(-c4cn(C)c(=O)c(-c5cnn(C)c5)c4C)c(C(C)C)c3c2)CC1 [Example 333, 5-(3-isopropyl-5-(1-propylpiperidin-4-yl)-1H-indol-2-yl)-1,4-dimethyl-3-(1-methyl-1H-pyrazol-4-yl)pyridin-2(1H)-one]
487 nM	0.8 nM	8.6 nM	CCCN1CCC(c2ccc3[nH]c(-c4cc(-c5cnn(C)c5)c(=O)n(C)c4)c(C(C)C)c3c2)CC1 [Example 334, 5-(3-isopropyl-5-(1-propylpiperidin-4-yl)-1H-indol-2-yl)-1-methyl-3-(1-methyl-1H-pyrazol-4-yl) pyridin-2(1H)-one]
